Measured values as given in PubChem BioAssay (NCI).
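Method: 48-hour compound exposure of cells in 96-well plates, five concentrations, linear interpolation of endpoints. Definition used: TGI = concentration required for complete inhibition of growth.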

How the values were obtained:
Assay in all cases: NCI-60 cell line screen, 48 h
786-0 renal = test system: 786-0 renal
CCRF-CEM leukemia = test system: CCRF-CEM leukemia
COLO 205 colon = test system: COLO 205 colon
EKVX NSCLC = test system: EKVX NSCLC
HCT-116 colon = test system: HCT-116 colon
HCT-15 colon = test system: HCT-15 colon
HT29 colon = test system: HT29 colon
LOX IMVI melanoma = test system: LOX IMVI melanoma
M14 melanoma = test system: M14 melanoma
MALME-3M melanoma = test system: MALME-3M melanoma
MDA-MB-435 = test system: MDA-MB-435
NCI-H23 lung = test system: NCI-H23 lung
NCI-H522 lung = test system: NCI-H522 lung
OVCAR-5 ovarian = test system: OVCAR-5 ovarian
SF-268 CNS = test system: SF-268 CNS
SK-MEL-2 melanoma = test system: SK-MEL-2 melanoma
SK-MEL-5 melanoma = test system: SK-MEL-5 melanoma
SNB-75 CNS = test system: SNB-75 CNS
SW-620 colon = test system: SW-620 colon
UACC-257 melanoma = test system: UACC-257 melanoma

COc1cccc(/C=C\c2ccc(O)cc2)c1
TGI (786-0 renal): 49.2 µM
TGI (CCRF-CEM leukemia): 1.22 µM
TGI (COLO 205 colon): > 100 µM
TGI (EKVX NSCLC): > 100 µM
TGI (HCT-116 colon): 74 µM
TGI (HCT-15 colon): > 76.1 µM
TGI (HT29 colon): 53.7 µM
TGI (LOX IMVI melanoma): 41.2 µM
TGI (M14 melanoma): 63.5 µM
TGI (MALME-3M melanoma): 65.9 µM
TGI (MDA-MB-435): > 91.2 µM
TGI (NCI-H23 lung): 39.6 µM
TGI (NCI-H522 lung): 56.8 µM
TGI (OVCAR-5 ovarian): > 100 µM
TGI (SF-268 CNS): > 96.7 µM
TGI (SK-MEL-2 melanoma): 68.8 µM
TGI (SK-MEL-5 melanoma): > 51.7 µM
TGI (SNB-75 CNS): 70.2 µM
TGI (SW-620 colon): > 90.7 µM
TGI (UACC-257 melanoma): > 100 µM

Nc1ccc(Sc2c3ccccc3nc3ccccc23)cc1
TGI (786-0 renal): 14.7 µM
TGI (CCRF-CEM leukemia): 30.2 µM
TGI (COLO 205 colon): 37.6 µM
TGI (EKVX NSCLC): 58.9 µM
TGI (HCT-116 colon): 26.1 µM
TGI (HCT-15 colon): 36.7 µM
TGI (HT29 colon): 32 µM
TGI (LOX IMVI melanoma): 13.9 µM
TGI (M14 melanoma): 30.1 µM
TGI (MALME-3M melanoma): 36.2 µM
TGI (MDA-MB-435): 35.1 µM
TGI (NCI-H23 lung): 36.7 µM
TGI (NCI-H522 lung): 16 µM
TGI (OVCAR-5 ovarian): 52 µM
TGI (SF-268 CNS): 40.5 µM
TGI (SK-MEL-2 melanoma): 34.1 µM
TGI (SK-MEL-5 melanoma): 30.6 µM
TGI (SNB-75 CNS): 36.2 µM
TGI (SW-620 colon): 39 µM
TGI (UACC-257 melanoma): 33.1 µM

C#CC1NC(=O)C1N(CC)CC (stereo not given)
TGI (786-0 renal): > 100 µM
TGI (CCRF-CEM leukemia): > 100 µM
TGI (COLO 205 colon): > 100 µM
TGI (EKVX NSCLC): > 100 µM
TGI (HCT-116 colon): > 100 µM
TGI (HCT-15 colon): > 100 µM
TGI (HT29 colon): > 100 µM
TGI (LOX IMVI melanoma): > 100 µM
TGI (M14 melanoma): > 100 µM
TGI (MALME-3M melanoma): > 100 µM
TGI (MDA-MB-435): > 100 µM
TGI (NCI-H23 lung): > 100 µM
TGI (NCI-H522 lung): > 100 µM
TGI (OVCAR-5 ovarian): > 100 µM
TGI (SF-268 CNS): > 100 µM
TGI (SK-MEL-2 melanoma): > 100 µM
TGI (SK-MEL-5 melanoma): > 100 µM
TGI (SNB-75 CNS): > 100 µM
TGI (SW-620 colon): > 100 µM
TGI (UACC-257 melanoma): > 100 µM

COc1ccc(/C=C/C(=O)c2ccc(OC(=O)/C=C/c3ccccc3)cc2)cc1
TGI (786-0 renal): 52.8 µM
TGI (CCRF-CEM leukemia): 21.5 µM
TGI (COLO 205 colon): > 71.6 µM
TGI (EKVX NSCLC): > 92.2 µM
TGI (HCT-116 colon): 40.4 µM
TGI (HCT-15 colon): > 100 µM
TGI (HT29 colon): 39.6 µM
TGI (LOX IMVI melanoma): > 100 µM
TGI (M14 melanoma): > 100 µM
TGI (MALME-3M melanoma): > 100 µM
TGI (MDA-MB-435): > 100 µM
TGI (NCI-H23 lung): 73.8 µM
TGI (NCI-H522 lung): 54.7 µM
TGI (OVCAR-5 ovarian): > 100 µM
TGI (SF-268 CNS): > 68.1 µM
TGI (SK-MEL-2 melanoma): > 100 µM
TGI (SK-MEL-5 melanoma): > 70 µM
TGI (SNB-75 CNS): > 82.2 µM
TGI (SW-620 colon): 98.9 µM
TGI (UACC-257 melanoma): > 100 µM

CCCNC(=O)N(C)C(=O)N1N=C(c2ccccc2)C1c1ccccc1 (stereo not given)
TGI (786-0 renal): > 100 µM
TGI (CCRF-CEM leukemia): 75.8 µM
TGI (COLO 205 colon): > 100 µM
TGI (EKVX NSCLC): > 100 µM
TGI (HCT-116 colon): > 100 µM
TGI (HCT-15 colon): > 100 µM
TGI (LOX IMVI melanoma): > 100 µM
TGI (M14 melanoma): > 100 µM
TGI (MALME-3M melanoma): > 100 µM
TGI (MDA-MB-435): > 100 µM
TGI (NCI-H23 lung): > 100 µM
TGI (NCI-H522 lung): > 100 µM
TGI (SK-MEL-2 melanoma): > 100 µM
TGI (SK-MEL-5 melanoma): > 100 µM
TGI (SNB-75 CNS): > 100 µM
TGI (SW-620 colon): > 100 µM
TGI (UACC-257 melanoma): > 100 µM

CC1=NN(c2nc(N)nc(/C(C#N)=C\c3cccc([N+](=O)[O-])c3)n2)C(C)(C)C1
TGI (786-0 renal): 32 µM
TGI (CCRF-CEM leukemia): > 66.8 µM
TGI (COLO 205 colon): > 48 µM
TGI (EKVX NSCLC): > 100 µM
TGI (HCT-116 colon): > 42.1 µM
TGI (HCT-15 colon): > 47.6 µM
TGI (HT29 colon): > 100 µM
TGI (LOX IMVI melanoma): 36.3 µM
TGI (M14 melanoma): > 48.9 µM
TGI (MALME-3M melanoma): > 54.9 µM
TGI (MDA-MB-435): > 26 µM
TGI (NCI-H23 lung): > 72 µM
TGI (OVCAR-5 ovarian): > 100 µM
TGI (SF-268 CNS): > 65.1 µM
TGI (SK-MEL-2 melanoma): > 29.9 µM
TGI (SK-MEL-5 melanoma): > 42.6 µM
TGI (SNB-75 CNS): 30.9 µM
TGI (SW-620 colon): > 51 µM
TGI (UACC-257 melanoma): 49.3 µM

N#Cc1c(O)c2ccccc2[nH]c1=O
TGI (786-0 renal): > 100 µM
TGI (CCRF-CEM leukemia): > 100 µM
TGI (COLO 205 colon): > 100 µM
TGI (EKVX NSCLC): > 100 µM
TGI (HCT-116 colon): > 100 µM
TGI (HCT-15 colon): > 100 µM
TGI (HT29 colon): > 100 µM
TGI (LOX IMVI melanoma): > 100 µM
TGI (M14 melanoma): > 100 µM
TGI (MALME-3M melanoma): > 100 µM
TGI (MDA-MB-435): > 100 µM
TGI (NCI-H23 lung): > 100 µM
TGI (NCI-H522 lung): > 100 µM
TGI (OVCAR-5 ovarian): > 100 µM
TGI (SK-MEL-2 melanoma): > 100 µM
TGI (SK-MEL-5 melanoma): > 100 µM
TGI (SNB-75 CNS): > 100 µM
TGI (SW-620 colon): > 100 µM
TGI (UACC-257 melanoma): > 100 µM

C=CC1(C)OC2(CCN(C(=O)OCC)CC2)OC1C (stereo not given)
TGI (786-0 renal): > 100 µM
TGI (CCRF-CEM leukemia): > 100 µM
TGI (COLO 205 colon): > 100 µM
TGI (EKVX NSCLC): > 100 µM
TGI (HCT-15 colon): > 100 µM
TGI (HT29 colon): > 100 µM
TGI (LOX IMVI melanoma): > 100 µM
TGI (M14 melanoma): > 100 µM
TGI (MALME-3M melanoma): > 100 µM
TGI (MDA-MB-435): > 100 µM
TGI (NCI-H23 lung): > 100 µM
TGI (NCI-H522 lung): > 100 µM
TGI (OVCAR-5 ovarian): > 100 µM
TGI (SF-268 CNS): > 100 µM
TGI (SK-MEL-2 melanoma): > 100 µM
TGI (SK-MEL-5 melanoma): > 100 µM
TGI (SNB-75 CNS): > 100 µM
TGI (SW-620 colon): > 100 µM
TGI (UACC-257 melanoma): > 100 µM

C/C(Cc1ccc2c(c1)OCO2)=N\NC(=O)C(C)Sc1nnc(SC(C)C(=O)N/N=C(\C)Cc2ccc3c(c2)OCO3)s1 (stereo not given)
TGI (786-0 renal): > 100 µM
TGI (CCRF-CEM leukemia): > 100 µM
TGI (COLO 205 colon): > 100 µM
TGI (EKVX NSCLC): > 100 µM
TGI (HCT-116 colon): > 100 µM
TGI (HCT-15 colon): > 100 µM
TGI (HT29 colon): > 100 µM
TGI (LOX IMVI melanoma): > 100 µM
TGI (M14 melanoma): > 100 µM
TGI (MALME-3M melanoma): > 100 µM
TGI (MDA-MB-435): > 100 µM
TGI (NCI-H23 lung): > 100 µM
TGI (OVCAR-5 ovarian): > 100 µM
TGI (SF-268 CNS): > 100 µM
TGI (SK-MEL-2 melanoma): > 100 µM
TGI (SK-MEL-5 melanoma): > 100 µM
TGI (SNB-75 CNS): > 100 µM
TGI (SW-620 colon): > 100 µM
TGI (UACC-257 melanoma): > 100 µM

S=C=NC1CCC(c2cc3ccccc3s2)(N2CCCCC2)CC1 (stereo not given)
TGI (786-0 renal): 3.26 µM
TGI (CCRF-CEM leukemia): 2.5 µM
TGI (COLO 205 colon): 3.93 µM
TGI (EKVX NSCLC): 4.69 µM
TGI (HCT-116 colon): 3.58 µM
TGI (HCT-15 colon): 3.7 µM
TGI (HT29 colon): 3.66 µM
TGI (LOX IMVI melanoma): 3.03 µM
TGI (M14 melanoma): 4.39 µM
TGI (MALME-3M melanoma): 3.04 µM
TGI (MDA-MB-435): 3.19 µM
TGI (NCI-H23 lung): 3.85 µM
TGI (NCI-H522 lung): 3.23 µM
TGI (OVCAR-5 ovarian): 3.7 µM
TGI (SF-268 CNS): 4.3 µM
TGI (SK-MEL-5 melanoma): 2.94 µM
TGI (SNB-75 CNS): 4.2 µM
TGI (UACC-257 melanoma): 3.54 µM

CC1(C)C2CCC(O)(C2)C1N (stereo not given)
TGI (786-0 renal): > 100 µM
TGI (CCRF-CEM leukemia): > 100 µM
TGI (COLO 205 colon): > 100 µM
TGI (EKVX NSCLC): > 100 µM
TGI (HCT-116 colon): > 100 µM
TGI (HCT-15 colon): > 100 µM
TGI (HT29 colon): > 100 µM
TGI (LOX IMVI melanoma): > 100 µM
TGI (M14 melanoma): > 100 µM
TGI (MALME-3M melanoma): > 100 µM
TGI (MDA-MB-435): > 100 µM
TGI (NCI-H23 lung): > 100 µM
TGI (OVCAR-5 ovarian): > 100 µM
TGI (SF-268 CNS): > 100 µM
TGI (SK-MEL-2 melanoma): > 100 µM
TGI (SK-MEL-5 melanoma): > 100 µM
TGI (SNB-75 CNS): > 100 µM
TGI (SW-620 colon): > 100 µM
TGI (UACC-257 melanoma): > 100 µM
